From patent US10316020B2, “Indane derivatives and the use thereof as soluble guanylate cyclase activators” (NOVARTIS AG, priority 2015, dated 2019) come the findings set out here.

The target in data set [1] is T1, soluble guanylate cyclase (GUCYA3/GUCYB3) overexpressed in CHO cells (Homo sapiens, UniProt Q02108+Q02153).
T1 construct: expressed in transfected cells
T1 sequence (Q02108 1-690 partner): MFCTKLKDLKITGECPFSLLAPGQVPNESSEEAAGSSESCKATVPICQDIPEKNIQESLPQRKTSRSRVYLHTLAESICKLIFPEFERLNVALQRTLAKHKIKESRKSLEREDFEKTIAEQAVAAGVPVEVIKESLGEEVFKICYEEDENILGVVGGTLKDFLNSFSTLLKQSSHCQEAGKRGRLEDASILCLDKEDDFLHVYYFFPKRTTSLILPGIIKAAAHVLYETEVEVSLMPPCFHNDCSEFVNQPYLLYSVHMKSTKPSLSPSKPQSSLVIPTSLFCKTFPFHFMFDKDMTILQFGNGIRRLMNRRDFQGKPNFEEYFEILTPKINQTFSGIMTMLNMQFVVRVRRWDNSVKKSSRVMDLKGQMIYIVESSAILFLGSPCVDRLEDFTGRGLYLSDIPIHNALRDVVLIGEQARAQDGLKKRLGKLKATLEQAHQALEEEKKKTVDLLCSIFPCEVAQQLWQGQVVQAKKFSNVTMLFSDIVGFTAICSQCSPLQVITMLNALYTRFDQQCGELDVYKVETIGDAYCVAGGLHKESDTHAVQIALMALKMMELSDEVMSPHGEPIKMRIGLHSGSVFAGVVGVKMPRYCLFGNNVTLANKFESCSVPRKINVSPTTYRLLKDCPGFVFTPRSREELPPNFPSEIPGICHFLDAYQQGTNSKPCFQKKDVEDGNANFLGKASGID
T1 sequence (Q02153 1-619): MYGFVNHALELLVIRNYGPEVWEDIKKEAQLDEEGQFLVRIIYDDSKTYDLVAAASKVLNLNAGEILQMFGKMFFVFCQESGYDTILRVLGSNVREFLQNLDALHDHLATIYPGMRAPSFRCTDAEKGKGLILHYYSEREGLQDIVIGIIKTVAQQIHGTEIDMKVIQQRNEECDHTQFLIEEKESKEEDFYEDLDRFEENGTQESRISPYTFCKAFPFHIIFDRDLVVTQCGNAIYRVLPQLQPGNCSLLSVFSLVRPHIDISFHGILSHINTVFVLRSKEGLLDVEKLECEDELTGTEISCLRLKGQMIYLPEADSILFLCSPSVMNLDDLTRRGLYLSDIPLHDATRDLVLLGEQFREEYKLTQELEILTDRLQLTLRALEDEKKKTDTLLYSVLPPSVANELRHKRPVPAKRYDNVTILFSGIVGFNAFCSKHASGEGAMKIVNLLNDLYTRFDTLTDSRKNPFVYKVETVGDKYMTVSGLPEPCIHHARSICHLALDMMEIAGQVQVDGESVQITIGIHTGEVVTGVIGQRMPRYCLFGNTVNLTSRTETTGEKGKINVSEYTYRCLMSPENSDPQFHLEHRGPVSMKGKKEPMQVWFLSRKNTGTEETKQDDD
The data set can be described thus: CHO cellular assay (cGMP production, HTRF). The class given is cell-based. An excerpt:
Chinese hamster ovary (CHO) cells overexpressing soluble guanylate cyclase were generated to test the effect of sGC activators in a cellular context. Human cDNAs for GUCYA3 (RefSeq: NM_000856.3) and GUCYB3 (RefSeq: NM_000857.1) were amplified by PCR from a HUVEC (Human Umbilical Vein Endothelial Cells) cDNA library and cloned into mammalian expression vectors. CHO K1 cells (ATCC CCL-61) were transfected using Lipofectamine 2000 following manufacturer's instructions and stably expressing clones were identified by antibiotic selection. CHO GUCY clone 8E10 was used for subsequent experiments.
Cells were seeded at a density of 3000 cells/well in white 384-well proxyplates (Perkin Elmer) and incubated overnight, then the medium was removed and cells were washed with assay buffer (HBSS, 0.1% BSA, 1 mM IBMX, 20 uM ODQ). sGC activators were serially diluted in DMSO, then diluted in assay buffer prior to adding to cells (10 ul/well, final DMSO concentration 0.5%). Cells were incubated with compounds for 1 h at room temperature, then assayed for cGMP production using Cisbio cGMP HTRF kit (62GM2PEC) according to manufacturer's instructions.
The EC50s are calculated based on the amount of cGMP interpolated from the standard curve, using a 4-parameter sigmoidal dose-response.
Compounds of invention are active on sGC activation. Data in Table 1 collected using the assay of Biological Example 1.

Data set [2] is described as follows: Pharmacokinetic clearance in intravenously dosed rats. The following applies: male, Sprague-Dawley, rat, whole blood, iv, 0.5 mg/kg. The class given is in vivo. As to the method: Sprague-Daley rats were administered sGC activators intravenously to assess the systemic clearance rates of the compounds from blood by non-compartmental analysis. Compounds with high clearance rates may be less prone to exert unwanted systemic (non-local) pharmocoligcal effects, which may be a benefical property for a compound intended to be dosed via topical ocular administration with the aim of exerting a pharmacological reponse locally in the eye.
In order to assess the pharmacokinetic parameters, male Sprague-Dawley rats were given 1 mL/Kg of the dosing solution (delineated in the table below) containing a test article (0.5 mg/kg) per kg of body weight via slow intravenous injection into an indwelling jugular vein catheter in a discrete PK study. Alternatively, male Sprague-Dawley rats were given 1 mL/Kg of the dosing solution containing three test articles (0.5 mg/kg each, 1.5 mg/kg total) per kg of body weight via slow intravenous injection into an indwelling jugular vein catheter in a cassette PK study. Diet and water was provided ad libitum without exception. At specified time following a single intravenous bolus injection, approximately 100 μL of whole blood was collected from indwelling catheter in jugular vein. The blood was stored frozen at −20° C. before an LC-MS/MS method was used to quantitate drug levels in the blood. All pharmacokinetic (PK) parameters were derived from concentration-time data by non-compartmental analyses using WinNonlin Phoenix version 6.4 (Certara, St. Louis, Mo.). For the intravenous dose, the concentration of unchanged compound at time 0 was calculated based on a log-linear regression of first two data points to back-extrapolate C(0). The area under the concentration-time curve was calculated using the linear trapezoidal rule.
Data in Table 2 collected using the assay of Biological Example 2 compares compounds from the present invention to other sGC activators previously disclosed PCT/IB2015/055006 filed Jul.

[3] abbreviates: CHO cellular assay, as repeated in Table 2, read-out: EC50 from biological Example #1.
Setting [4] is: i.v. 0.5 mg/kg each, three test articles, Cassette - E (10% propylene glycol, 10% Solutol HS15, PBS).
Setting [5] is: CHO GUCY clone 8E10, assay buffer with 1 mM IBMX, 20 uM ODQ, 1 h at room temperature, cGMP HTRF, quantification limit 0.0005 μM, read-out: Mean EC50.

Structures are written as SMILES. Where two headings read alike, the source gives them in different places.

With `Cc1cc(C2CCN(C(=O)C3CC3)CC2)ccc1NC1CCc2cccc(-c3cccc(-n4ncc(C(=O)O)c4C)c3)c21` (single isomer, unassigned; (+)) [(+)-1-(3-(3-((4-(1-(cyclopropanecarbonyl)piperidin-4-yl)-2-methylphenyl)amino)-2,3-dihydro-1H-inden-4-yl)phenyl)-5-methyl-1H-pyrazole-4-carboxylic acid, reference compound], the EC50 in data set [1] (setting [3]) is less than 0.5 nM. The clearance in data set [2] (i.v. 0.5 mg/kg each, three test articles, Cassette - F (20% propylene glycol, 10% Solutol HS15, PBS)) was 24.9 mL/min/kg. For `Cc1cc(C2CCN(C(=O)C3CC3)CC2)ccc1CC1CCc2cccc(-c3cccc(-n4ncc(C(=O)O)c4C)n3)c21` (single isomer, unassigned; (+)) [(+)-1-(6-(3-(4-(1-(cyclopropanecarbonyl)piperidin-4-yl)-2-methylbenzyl)-2,3-dihydro-1H-inden-4-yl)pyridin-2-yl)-5-methyl-1H-pyrazole-4-carboxylic acid], the EC50 in data set [1] (setting [3]) is less than 0.5 nM. Also, the clearance turned out to be 97.2 mL/min/kg in data set [2] (setting [4]) and 25.6 mL/min/kg in data set [2] (i.v. 0.5 mg/kg, Discrete - D (10% propylene glycol, 10% Solutol HS15, PBS)). For `CCc1cc(OC2CCc3cccc(-c4cccc(-n5ncc(C(=O)O)c5CC)n4)c32)ccc1C1CCN(C(=O)C2CC2)CC1` (single isomer, unassigned; (+)) [(+)-1-(6-(3-(4-(1-(cyclopropanecarbonyl)piperidin-4-yl)-3-ethylphenoxy)-2,3-dihydro-1H-inden-4-yl)pyridin-2-yl)-5-ethyl-1H-pyrazole-4-carboxylic acid], in data set [1] (setting [3]), the EC50 is less than 0.5 nM. For the same molecule, the clearance in data set [2] (setting [4]) worked out at 6.6 mL/min/kg; in data set [2] (i.v. 0.5 mg/kg, Discrete - G (20% propylene glycol, 50% of 20% Solutol HS15, water)), 14 mL/min/kg. As to `CCc1cc(O[C@H]2CCc3cccc(-c4cccc(-n5ncc(C(=O)O)c5OC)c4)c32)ccc1C1CCN(C(=O)[C@H](C)O)CC1` [Example 6, 1-(3-((S)-3-(3-Ethyl-4-(1-((S)-2-hydroxypropanoyl)piperidin-4-yl)phenoxy)-2,3-dihydro-1H-inden-4-yl)phenyl)-5-methoxy-1H-pyrazole-4-carboxylic acid], the EC50 in data set [1] (setting [5]) was less than 0.5 nM. Take `CCc1cc(C[C@H]2CCc3cccc(-c4cccc(-n5ncc(C(=O)O)c5OC)n4)c32)ccc1C1CCN(C(=O)C2CC2)CC1` [Example 13, (+)-(R)-1-(6-(3-(4-(1-(Cyclopropanecarbonyl)piperidin-4-yl)-3-ethylbenzyl)-2,3-dihydro-1H-inden-4-yl)pyridin-2-yl)-5-methoxy-1H-pyrazole-4-carboxylic acid]: the EC50 in data set [1] (setting [5]) was less than 0.5 nM.

As for `CCc1cc(O[C@H]2CCc3cccc(-c4cccc(-n5ncc(C(=O)O)c5OC)n4)c32)ccc1C1CCN(C(=O)C2CC2)CC1` [Example 14, (S)-1-(6-(3-(4-(1-(Cyclopropanecarbonyl)piperidin-4-yl)-3-ethylphenoxy)-2,3-dihydro-1H-inden-4-yl)pyridin-2-yl)-5-methoxy-1H-pyrazole-4-carboxylic acid], in data set [1] (setting [5]), the EC50 is less than 0.5 nM. Still for that read-out and setting: the figure for `CCc1cc(O[C@H]2CCc3cccc(-c4cccc(-n5ncc(C(=O)O)c5OC)n4)c32)ccc1C1CCN(C(=O)[C@H](C)O)CC1` [Example 15, 1-(6-((S)-3-(3-Ethyl-4-(1-((S)-2-hydroxypropanoyl)piperidin-4-yl)phenoxy)-2,3-dihydro-1H-inden-4-yl)pyridin-2-yl)-5-methoxy-1H-pyrazole-4-carboxylic acid] is 1 nM; for `CCc1cc(O[C@H]2CCc3cccc(-c4cccc(-n5ncc(C(=O)O)c5N)n4)c32)ccc1C1CCN(C(=O)C2CC2)CC1` [Example 19, (S)-5-Amino-1-(6-(3-(4-(1-(cyclopropanecarbonyl)piperidin-4-yl)-3-ethylphenoxy)-2,3-dihydro-1H-inden-4-yl)pyridin-2-yl)-1H-pyrazole-4-carboxylic acid] it is 3 nM. `CCc1cc(C[C@H]2CCc3cccc(-c4cccc(-n5ncc(C(=O)O)c5N)c4)c32)ccc1C1CCN(C(=O)C2CC2)CC1` [Example 20, (+)-(R)-5-Amino-1-(3-(3-(4-(1-(cyclopropanecarbonyl)piperidin-4-yl)-3-ethylbenzyl)-2,3-dihydro-1H-inden-4-yl)phenyl)-1H-pyrazole-4-carboxylic acid]: in data set [1] (setting [5]), the EC50 is less than 0.5 nM. Still for that read-out and setting: then `CCc1cc(C[C@H]2CCc3cccc(-c4cccc(-n5ncc(C(=O)O)c5NC)c4)c32)ccc1C1CCN(C(=O)C2CC2)CC1` [Example 21, (R)-1-(3-(3-(4-(1-(cyclopropanecarbonyl)piperidin-4-yl)-3-ethylbenzyl)-2,3-dihydro-1H-inden-4-yl)phenyl)-5-(methylamino)-1H-pyrazole-4-carboxylic acid], with less than 0.5 nM; and `CCc1cc(C[C@H]2CCc3cccc(-c4cccc(-n5ncc(C(=O)O)c5N)n4)c32)ccc1C1CCN(C(=O)C2CC2)CC1` [Example 23, (R)-5-Amino-1-(6-(3-(4-(1-(cyclopropanecarbonyl)piperidin-4-yl)-3-ethylbenzyl)-2,3-dihydro-1H-inden-4-yl)pyridin-2-yl)-1H-pyrazole-4-carboxylic acid], with less than 0.5 nM; and `CCc1cc(C[C@H]2CCc3cccc(-c4cccc(-n5ncc(C(=O)O)c5OC)n4)c32)ccc1C1CCN(C(=O)[C@H](C)O)CC1` [Example 24, (+)-(R)-1-(6-(3-(3-Ethyl-4-(1-((S)-2-hydroxypropanoyl)piperidin-4-yl)benzyl)-2,3-dihydro-1H-inden-4-yl)pyridin-2-yl)-5-methoxy-1H-pyrazole-4-carboxylic acid], with less than 0.5 nM.
